Measured values reported in PubChem BioAssay (NCI).
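1) Cells in 96-well plates. 2) Compound, 48 h, 5 concentrations. 3) Linear interpolation between surrounding doses. 4) Unreached endpoint = highest concentration. TGI: concentration producing complete growth inhibition.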

What was measured:
Test in all cases: NCI anticancer screen, dose series, 48 h
SF-295 CNS = tested on: SF-295 CNS
SNB-19 CNS = tested on: SNB-19 CNS
HOP-18 NSCLC = tested on: HOP-18 NSCLC
HCT-15 colon = tested on: HCT-15 colon
UACC-257 melanoma = tested on: UACC-257 melanoma
U251 CNS = tested on: U251 CNS
DMS 114 small cell lung = tested on: DMS 114 small cell lung
LXFL 529 NSCLC = tested on: LXFL 529 NSCLC
XF 498 CNS = tested on: XF 498 CNS
HL-60(TB) leukemia = tested on: HL-60(TB) leukemia
LOX IMVI melanoma = tested on: LOX IMVI melanoma

Structure (SMILES): CC(C)(C)c1cc([Si](C)(C)C)c(C#N)c([Si](C)(C)C)c1
- TGI (SF-295 CNS): > 100 µM
- TGI (SNB-19 CNS): > 100 µM
- TGI (HOP-18 NSCLC): > 100 µM
- TGI (HCT-15 colon): > 100 µM
- TGI (UACC-257 melanoma): > 100 µM
- TGI (U251 CNS): > 100 µM
- TGI (DMS 114 small cell lung): > 100 µM
- TGI (LXFL 529 NSCLC): > 100 µM
- TGI (XF 498 CNS): 67 µM
- TGI (HL-60(TB) leukemia): 44.2 µM
- TGI (LOX IMVI melanoma): > 100 µM

Structure (SMILES): CC1O[C@@H]2CCCCC(=O)[C@]2(C)[C@H]1C (stereo not given in full)
- TGI (SF-295 CNS): > 100 µM
- TGI (SNB-19 CNS): > 100 µM
- TGI (HOP-18 NSCLC): > 100 µM
- TGI (HCT-15 colon): > 100 µM
- TGI (UACC-257 melanoma): > 100 µM
- TGI (U251 CNS): > 100 µM
- TGI (DMS 114 small cell lung): > 100 µM
- TGI (LXFL 529 NSCLC): > 100 µM
- TGI (XF 498 CNS): > 100 µM
- TGI (HL-60(TB) leukemia): > 100 µM
- TGI (LOX IMVI melanoma): > 100 µM

Structure (SMILES): O=C(NNC(=O)/C(=C/c1cccc([N+](=O)[O-])c1)NC(=O)c1ccccc1)Nc1ccc(Cl)cc1
- TGI (SF-295 CNS): 34.3 µM
- TGI (SNB-19 CNS): 30.8 µM
- TGI (HOP-18 NSCLC): 34.6 µM
- TGI (HCT-15 colon): 24.7 µM
- TGI (UACC-257 melanoma): 34.4 µM
- TGI (U251 CNS): 28.4 µM
- TGI (DMS 114 small cell lung): 26.9 µM
- TGI (LXFL 529 NSCLC): 23.5 µM
- TGI (XF 498 CNS): 26.6 µM
- TGI (HL-60(TB) leukemia): 30.3 µM
- TGI (LOX IMVI melanoma): 30.2 µM

Structure (SMILES): Clc1cc2ns[s+]c2cc1Cl
- TGI (SF-295 CNS): > 100 µM
- TGI (SNB-19 CNS): > 100 µM
- TGI (HOP-18 NSCLC): > 69.3 µM
- TGI (HCT-15 colon): > 100 µM
- TGI (UACC-257 melanoma): > 100 µM
- TGI (U251 CNS): > 100 µM
- TGI (DMS 114 small cell lung): > 100 µM
- TGI (LXFL 529 NSCLC): > 100 µM
- TGI (XF 498 CNS): > 100 µM
- TGI (HL-60(TB) leukemia): > 87.2 µM
- TGI (LOX IMVI melanoma): > 100 µM

Structure (SMILES): COC(=O)/C(=C1\OC(=O)C(c2ccc(Cl)cc2)=C1O)c1ccc(Cl)cc1
- TGI (SF-295 CNS): 43 µM
- TGI (SNB-19 CNS): 94.5 µM
- TGI (HOP-18 NSCLC): > 100 µM
- TGI (UACC-257 melanoma): 48.8 µM
- TGI (U251 CNS): > 100 µM
- TGI (DMS 114 small cell lung): 51.3 µM
- TGI (LXFL 529 NSCLC): 87.7 µM
- TGI (XF 498 CNS): 36.1 µM
- TGI (HL-60(TB) leukemia): 32.9 µM
- TGI (LOX IMVI melanoma): 64.4 µM

Structure (SMILES): NC1=NN(c2ccccc2)C(=O)C1/C(=N\NC(=O)c1cc2ccccc2cc1O)C(=O)Nc1ccc(Cl)c(Cl)c1 (stereo not given)
- TGI (SF-295 CNS): > 100 µM
- TGI (SNB-19 CNS): > 100 µM
- TGI (HOP-18 NSCLC): > 100 µM
- TGI (HCT-15 colon): > 100 µM
- TGI (UACC-257 melanoma): 84 µM
- TGI (U251 CNS): > 100 µM
- TGI (DMS 114 small cell lung): 82 µM
- TGI (LXFL 529 NSCLC): > 100 µM
- TGI (XF 498 CNS): 71.6 µM
- TGI (HL-60(TB) leukemia): 39.8 µM
- TGI (LOX IMVI melanoma): > 100 µM
